How the values were obtained:
Format in all cases: in vivo
Scirpophaga incertulas = assay: Test Example 1: control of Scirpophaga incertulas (dead hearts) in paddy field; conditions: for Percentage of control of S. incertulas: 43 days after transplantation; for Percentage of S. incertulas-caused dead hearts: applied once 10 days after transplantation, assessed 43 days after transplantation
Excerpt: (§1) Paddy rice plants were transplanted to an experimental paddy field (50 m^2, planted with 1250 paddy rice plants on average), and 10 days later, granules containing flubendiamide as an active ingredient were applied once at the predetermined doses. At 43 days after the transplantation, in 10 rice plants chosen at random, the percentage of Scirpophaga incertulas-caused dead hearts per plant, the percentage of control of Scirpophaga incertulas, the stem number per plant, and the percentage of increase in the stem number were measured. To exclude the positive effect of the insecticidal action of flubendiamide on the growth of paddy rice plants, chlorantraniliprole, which has an equivalent insecticidal action, was used as a control agrochemical.

paddy rice plants = assay: Test Example 1: increase in stem number (promotion of tillering) of paddy rice plants; conditions: for Stem number/plant: 43 days after transplantation; for Percentage of increase in stem number: non-treatment = 100
Excerpt: as §1

[1] = test system: germinating rice seeds (variety: Nihonbare); assay: Test Example 2: rooting promotion and plant height growth in paddy rice plants (agar test); conditions: 25 ppm in 0.7% agar, 8 days after seeding
Experimental: A 0.7% agar solution containing 25 ppm of flubendiamide was poured into a glass cylinder (3 cm diameter×10 cm) and allowed to be solidified. Onto the solidified agar, ten germinating rice seeds (variety: Nihonbare) were sown. Then, the top of the cylinder was covered with Japanese paper and the cylinder was placed in a thermostatic chamber (light-dark cycle: 16 hours of light and 8 hours of dark, relative humidity: 60 to 70%) at 25° C. At 8 days after the seeding, the lengths of the longest root (primary root) and the stem-and-leaf part extending from each seed-rice were measured and the averages were calculated. The percentages of elongation were also calculated with the proviso that the non-treatment levels were set as 100.

[2] = test system: rice plants (variety: Takanari); assay: Test Example 3: yield increase (numbers of panicles and unhulled rice grains) of paddy rice plants; conditions: for Panicle number/plant / Unhulled rice grain number/plant: harvest at 100 days; for Percentage of increase (panicle number) / Percentage of increase (unhulled rice grain number): non-treatment = 100
Experimental: Rice plants (variety: Takanari) of the 6.5- to 7-leaf stage were transplanted to 1-m^2 plots of a paddy field, and 2 or 12 days later, flubendiamide granules were applied at the predetermined doses. The test was performed in 4 replications. At 100 days after the transplantation, the rice plants were harvested, the numbers of panicles and unhulled rice grains per plant were measured and the averages were calculated. The percentages of increase were also calculated with the proviso that the non-treatment levels were set as 100.

[3] = 35 g a.i./ha granules applied 2 days after transplantation
[4] = 35 g a.i./ha granules applied 12 days after transplantation
[5] = 35 g a.i./ha, applied 2 days after transplantation
[6] = 35 g a.i./ha, applied 12 days after transplantation
[7] = 70 g a.i./ha granules applied 2 days after transplantation
[8] = 70 g a.i./ha granules applied 12 days after transplantation
[9] = 70 g a.i./ha, applied 2 days after transplantation
[10] = 70 g a.i./ha, applied 12 days after transplantation
[11] = regardless of application time and dose

In the case of `CNC(=O)c1cc(Cl)cc(C)c1NC(=O)c1cc(Br)nn1-c1ncccc1Cl` [Chlorantraniliprole], the “Percentage of control of S. incertulas” value (Scirpophaga incertulas; 40 g a.i./ha) was 90.2%, the “Percentage of S. incertulas-caused dead hearts” value (Scirpophaga incertulas; 40 g a.i./ha) was 0.37% and the Stem number/plant (paddy rice plants; 40 g a.i./ha) was 26.35 /plant. For the same molecule, the “Percentage of increase in stem number” value (paddy rice plants; 40 g a.i./ha) was 119%, the “Percentage of increase in stem number” value (paddy rice plants; 40 g a.i./ha, listed as chlorantraniliprole) was “about 120%” and the “Increase in stem number per plant compared with the non-treatment level” value (paddy rice plants; chlorantraniliprole treatment plot (40 g a.i./ha)) was “about four”.

In the case of `Cc1cc(C(F)(C(F)(F)F)C(F)(F)F)ccc1NC(=O)c1cccc(I)c1C(=O)NC(C)(C)CS(C)(=O)=O` [Flubendiamide, 3-iodo-N′-(2-mesyl-1,1-dimethylethyl)-N-{4-[1,2,2,2-tetrafluoro-1-(trifluoromethyl)ethyl]-o-tolyl}phthalamide], the “Percentage of S. incertulas-caused dead hearts” value (Scirpophaga incertulas; 70 g a.i./ha granules) was 0.48%, the “Percentage of control of S. incertulas” value (Scirpophaga incertulas; 70 g a.i./ha) was 87.3% and the “Percentage of S. incertulas-caused dead hearts” value (Scirpophaga incertulas; 90 g a.i./ha granules) was 0.34%. The “Percentage of control of S. incertulas” value (Scirpophaga incertulas; 90 g a.i./ha) was 91.0%, the “Percentage of S. incertulas-caused dead hearts” value (Scirpophaga incertulas; 120 g a.i./ha granules) was 0.30% and the “Percentage of control of S. incertulas” value (Scirpophaga incertulas; 120 g a.i./ha) was 92.1%. For the same molecule, the Stem number/plant (paddy rice plants; 70 g a.i./ha) was 39.6 /plant, the “Percentage of increase in stem number” value (paddy rice plants; 70 g a.i./ha) was 178% and the Stem number/plant (paddy rice plants; 90 g a.i./ha) was 38.0 /plant. For the same molecule, the “Percentage of increase in stem number” value (paddy rice plants; 90 g a.i./ha) was 171%, the Stem number/plant (paddy rice plants; 120 g a.i./ha) was 39.15 /plant and the “Percentage of increase in stem number” value (paddy rice plants; 120 g a.i./ha) was 176%. For the same molecule, the “Increase in stem number per plant compared with the non-treatment level” value (paddy rice plants; flubendiamide treatment plots, regardless of dose (70-120 g a.i./ha)) was “about 17”, the Average root length ([1]; 25° C.) was 6.7 cm and the Average stem-and-leaf length ([1]; 25° C.) was 3.9 cm. The “Percentage of elongation in root length” value ([1]; non-treatment = 100) was 160%, the “Percentage of elongation in stem-and-leaf length” value ([1]; non-treatment = 100) was 170% and the Panicle number/plant [2, 3] was 10.4 /plant. For the same molecule, the “Unhulled rice grain number/plant” value [2, 3] was 1360.3 /plant, the Panicle number/plant [2, 4] was 11.9 /plant and the “Unhulled rice grain number/plant” value [2, 4] was 1528.0 /plant. The “Percentage of increase (panicle number)” value [2, 5] was 110%, the “Percentage of increase (unhulled rice grain number)” value [2, 5] was 110% and the “Percentage of increase (panicle number)” value [2, 6] was 126%. The “Percentage of increase (unhulled rice grain number)” value [2, 6] was 124%, the Panicle number/plant [2, 7] was 11.2 /plant and the “Unhulled rice grain number/plant” value [2, 7] was 1484.0 /plant. For the same molecule, the Panicle number/plant [2, 8] was 12.5 /plant, the “Unhulled rice grain number/plant” value [2, 8] was 1600.0 /plant and the “Percentage of increase (panicle number)” value [2, 9] was 119%. For the same molecule, the “Percentage of increase (unhulled rice grain number)” value [2, 9] was 120%, the “Percentage of increase (panicle number)” value [2, 10] was 132% and the “Percentage of increase (unhulled rice grain number)” value [2, 10] was 130%. For the same molecule, the “Numbers of panicles versus non-treatment levels” value [2, 11] was “significantly increased” and the “Numbers of unhulled rice grains versus non-treatment levels” value [2, 11] was “significantly increased”.

From patent publication US9433212B2, “Plant growth regulator and method for using the same” (NIHON NOHYAKU CO., LTD., priority 2011, dated 2016)
